# According to patent US7163949B1, “4-phenyl substituted tetrahydroisoquinolines and use thereof” (AMR Technology, Inc., priority 1999, dated 2007):
# Structures can show the parent of a compound that is named as a salt.
# System: not given
# Details: not given
row,SMILES,melting point
1,CN1Cc2cc(C(F)(F)F)ccc2C(c2ccccc2)C1 (stereo not shown),257 to 275 °C
2,Cc1ccc2c(c1)C(C)N(C)CC2c1ccccc1 (stereo not shown),87 to 89 °C
3,FCc1ccc2c(c1CF)CN(CF)CC2c1ccccc1 (stereo not shown),108 to 113 °C
4,Cc1c(F)ccc2c1CN(C)CC2c1ccccc1 (stereo not shown),185 to 186 °C
5,COc1c(C)ccc2c1CN(C)CC2c1ccccc1 (stereo not shown),130 to 131 °C
6,Cc1ccc2c(c1O)CN(C)CC2c1ccccc1 (stereo not shown),260 to 261 °C
7,CN1Cc2cc(OC(F)(F)F)ccc2C(c2ccccc2)C1 (stereo not shown),150 to 151 °C (dec.)
8,CN1Cc2cc(Oc3ccccc3)ccc2C(c2ccccc2)C1 (stereo not shown),175 to 176 °C (dec.)
9,CN1Cc2cc(OCc3ccccc3)ccc2C(c2ccccc2)C1 (stereo not shown),155 to 156 °C
10,Cc1ccc2c(c1)CN(C)CC2c1ccc(F)c(C)c1 (stereo not shown),174 to 175 °C
11,CN1Cc2c(CO)cccc2C(c2ccccc2)C1 (stereo not shown),144 to 146 °C
12,Cc1cc(F)c2c(c1)C(C)N(C)C(F)C2c1ccccc1 (stereo not shown) (as salt: HCl),194 to 197 °C (dec.)
13,CNCc1ccc2c(c1F)CN(C)CC2c1ccccc1 (stereo not shown) (as salt: HCl),185 to 205 °C
14,CN1Cc2cc(CO)ccc2C(c2ccccc2)C1 (stereo not shown) (as salt: HCl),237 to 240 °C (dec.)
15,Cc1ccc2c(c1F)CN(C)CC2c1ccccc1 (stereo not shown) (as salt: hydrochloride),215 to 216 °C

# System: dopamine transporter protein over the norepinephrine transporter protein
# Details: selectivity for dopamine transporter protein over norepinephrine transporter protein; cited from earlier work
row,SMILES,DAT/NET Ki ratio
1,COC(=O)C(c1ccccc1)C1CCCCN1 (stereo not shown) [Methylphenidate],0.1
